Laboratory results: PubChem BioAssay (NCI)
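1) Cells in 96-well plates. 2) Compound, 48 h, 5 concentrations. 3) Linear interpolation between surrounding doses. 4) Unreached endpoint = highest concentration. TGI: concentration producing complete growth inhibition.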

How the values were obtained:
Experiment in all cases: inhibition of tumour cell growth, NCI panel, 48 h
[1] = system: NCI-H23 lung
[2] = system: OVCAR-8 ovarian
[3] = system: SNB-19 CNS
[4] = system: SF-539 CNS
[5] = system: KM12 colon
[6] = system: OVCAR-5 ovarian
[7] = system: RXF-631 renal
[8] = system: OVCAR-4 ovarian
[9] = system: TK-10 renal
[10] = system: HL-60(TB) leukemia
[11] = system: DMS 114 small cell lung
[12] = system: UACC-257 melanoma
[13] = system: NCI-H460 lung
[14] = system: MALME-3M melanoma
[15] = system: HCT-15 colon
[16] = system: CCRF-CEM leukemia
[17] = system: A549 NSCLC
[18] = system: SW-620 colon
[19] = system: UACC-62 melanoma
[20] = system: SK-MEL-5 melanoma
[21] = system: UO-31 renal
[22] = system: HOP-18 NSCLC
[23] = system: RXF 393 renal
[24] = system: MOLT-4 leukemia
[25] = system: COLO 205 colon
[26] = system: HT29 colon
[27] = system: LXFL 529 NSCLC
[28] = system: SK-MEL-2 melanoma
[29] = system: SNB-78 CNS
[30] = system: SF-295 CNS
[31] = system: HOP-92 NSCLC
[32] = system: A498 renal
[33] = system: SK-MEL-28 melanoma
[34] = system: HCT-116 colon
[35] = system: RPMI-8226 leukemia
[36] = system: KM20L2 colon
[37] = system: SF-268 CNS
[38] = system: M14 melanoma
[39] = system: U251 CNS
[40] = system: DLD-1 colon
[41] = system: SN12C renal
[42] = system: K-562 leukemia
[43] = system: OVCAR-3 ovarian
[44] = system: 786-0 renal
[45] = system: EKVX NSCLC
[46] = system: ACHN renal
[47] = system: M19-MEL melanoma
[48] = system: HCC-2998 colon
[49] = system: NCI-H226 lung
[50] = system: CAKI-1 renal
[51] = system: SR leukemia
[52] = system: SNB-75 CNS
[53] = system: IGROV1 ovarian
[54] = system: LOX IMVI melanoma
[55] = system: DMS 273 small cell lung
[56] = system: HOP-62 NSCLC
[57] = system: NCI-H522 lung
[58] = system: XF 498 CNS
[59] = system: SK-OV-3 ovarian

With `CN(C)CCC1(C2=CCCC2)CC/C(=C\c2ccc3c(c2)OCO3)C1=O` (stereo not drawn) the TGI [1] was 33 µM, the TGI [2] was 29 µM and the TGI [3] was 43.5 µM. For the same molecule, the TGI [4] was 30.2 µM, the TGI [5] was 31.8 µM and the TGI [6] was 29.2 µM. For the same molecule, the TGI [7] was 38.7 µM, the TGI [8] was 27.1 µM and the TGI [9] was 29.2 µM. For the same molecule, the TGI [10] was 37 µM, the TGI [11] was 32.7 µM and the TGI [12] was 29 µM. For the same molecule, the TGI [13] was 36.2 µM, the TGI [14] was 30.1 µM and the TGI [15] was 29 µM. The TGI [16] was 41.4 µM, the TGI [17] was 31.8 µM and the TGI [18] was 29.9 µM. For the same molecule, the TGI [19] was 39.5 µM, the TGI [20] was 27.6 µM and the TGI [21] was 20.2 µM. For the same molecule, the TGI [22] was 26.4 µM, the TGI [23] was 21.3 µM and the TGI [24] was 31.4 µM. For the same molecule, the TGI [25] was 47.7 µM, the TGI [26] was 25.2 µM and the TGI [27] was 25.5 µM. It also gave a TGI [28] of 31.6 µM, a TGI [29] of 35 µM and a TGI [30] of 29.5 µM. For the same molecule, the TGI [31] was 24.4 µM, the TGI [32] was 24.7 µM and the TGI [33] was 27.4 µM. For the same molecule, the TGI [34] was 26.9 µM, the TGI [35] was 73.9 µM and the TGI [36] was 28.6 µM. For the same molecule, the TGI [37] was 28.1 µM, the TGI [38] was 28.3 µM and the TGI [39] was 29 µM. It also gave a TGI [40] of 38.3 µM, a TGI [41] of 28.8 µM and a TGI [42] of 32 µM. For the same molecule, the TGI [43] was 31.6 µM, the TGI [44] was 26.9 µM and the TGI [45] was 29.3 µM. For the same molecule, the TGI [46] was 29.6 µM, the TGI [47] was 32.6 µM and the TGI [48] was 29.6 µM.
For `N=C(N)/N=C(/C=C/c1ccccc1)CC1OC(=O)c2ccccc21` (stereo not drawn), the TGI [49] was > 100 µM, the TGI [50] was > 100 µM and the TGI [2] was > 100 µM. For the same molecule, the TGI [3] was > 100 µM, the TGI [4] was > 100 µM and the TGI [5] was > 100 µM. The TGI [51] was > 100 µM, the TGI [52] was > 100 µM and the TGI [8] was > 100 µM. For the same molecule, the TGI [10] was > 100 µM, the TGI [11] was > 100 µM and the TGI [12] was > 100 µM. The TGI [13] was > 100 µM, the TGI [14] was > 100 µM and the TGI [15] was > 100 µM. For the same molecule, the TGI [16] was > 100 µM, the TGI [17] was > 100 µM and the TGI [18] was > 100 µM. For the same molecule, the TGI [19] was > 100 µM, the TGI [20] was > 100 µM and the TGI [21] was > 100 µM. The TGI [23] was > 100 µM, the TGI [24] was > 100 µM and the TGI [25] was > 100 µM. The TGI [53] was > 100 µM, the TGI [26] was > 100 µM and the TGI [27] was > 100 µM. The TGI [28] was > 100 µM, the TGI [32] was > 100 µM and the TGI [54] was > 100 µM. The TGI [34] was > 100 µM, the TGI [55] was > 100 µM and the TGI [35] was > 100 µM. The TGI [36] was > 100 µM, the TGI [56] was > 100 µM and the TGI [37] was > 100 µM. For the same molecule, the TGI [38] was > 100 µM, the TGI [39] was > 100 µM and the TGI [40] was > 100 µM. The TGI [41] was > 100 µM, the TGI [42] was > 100 µM and the TGI [57] was > 100 µM. For the same molecule, the TGI [44] was > 100 µM, the TGI [45] was > 100 µM and the TGI [46] was > 100 µM. For the same molecule, the TGI [58] was > 100 µM, the TGI [47] was > 100 µM and the TGI [48] was > 100 µM.
In the case of `O=[N+]([O-])c1ccccc1S(=O)c1ccccc1` (stereo not drawn), the TGI [49] is reported as > 100 µM, the TGI [50] is reported as > 100 µM and the TGI [1] is reported as > 100 µM. The TGI [2] was > 100 µM, the TGI [3] was > 100 µM and the TGI [4] was > 100 µM. For the same molecule, the TGI [5] was > 100 µM, the TGI [51] was > 100 µM and the TGI [52] was 58.7 µM. The TGI [6] was > 100 µM, the TGI [8] was > 100 µM and the TGI [9] was > 100 µM. The TGI [10] was > 100 µM, the TGI [11] was 51.8 µM and the TGI [12] was > 100 µM. For the same molecule, the TGI [13] was > 100 µM, the TGI [14] was > 100 µM and the TGI [15] was > 100 µM. For the same molecule, the TGI [16] was > 100 µM, the TGI [17] was > 100 µM and the TGI [18] was > 100 µM. The TGI [19] was > 100 µM, the TGI [20] was > 100 µM and the TGI [21] was > 100 µM. For the same molecule, the TGI [23] was > 100 µM, the TGI [24] was > 100 µM and the TGI [53] was > 100 µM. The TGI [26] was > 100 µM, the TGI [27] was > 100 µM and the TGI [28] was > 100 µM. The TGI [29] was > 100 µM, the TGI [30] was > 100 µM and the TGI [31] was > 100 µM. For the same molecule, the TGI [32] was > 100 µM, the TGI [54] was > 100 µM and the TGI [33] was > 100 µM. The TGI [34] was > 100 µM, the TGI [55] was > 100 µM and the TGI [35] was > 100 µM. The TGI [56] was > 100 µM, the TGI [37] was > 100 µM and the TGI [38] was > 100 µM. For the same molecule, the TGI [59] was > 100 µM, the TGI [39] was > 100 µM and the TGI [40] was > 100 µM. The TGI [41] was > 100 µM, the TGI [42] was > 100 µM and the TGI [43] was > 100 µM. The TGI [57] was > 100 µM, the TGI [44] was > 100 µM and the TGI [46] was > 100 µM. For the same molecule, the TGI [58] was > 100 µM, the TGI [47] was > 100 µM and the TGI [48] was > 100 µM.
For `O=C(O)CSc1n[nH]c(/C=C/c2ccccc2)n1`, the TGI [49] was > 100 µM, the TGI [50] was > 100 µM and the TGI [1] was > 100 µM. For the same molecule, the TGI [2] was > 100 µM, the TGI [3] was > 100 µM and the TGI [4] was > 100 µM. The TGI [5] was > 100 µM, the TGI [51] was > 100 µM and the TGI [52] was > 100 µM. For the same molecule, the TGI [6] was > 100 µM, the TGI [8] was > 100 µM and the TGI [9] was > 100 µM. The TGI [10] was > 100 µM, the TGI [11] was > 100 µM and the TGI [12] was > 100 µM. For the same molecule, the TGI [13] was > 100 µM, the TGI [14] was > 100 µM and the TGI [15] was > 100 µM. For the same molecule, the TGI [16] was > 100 µM, the TGI [17] was > 100 µM and the TGI [18] was > 100 µM. For the same molecule, the TGI [19] was > 100 µM, the TGI [20] was > 100 µM and the TGI [21] was > 100 µM. For the same molecule, the TGI [22] was > 100 µM, the TGI [23] was > 100 µM and the TGI [24] was > 100 µM. For the same molecule, the TGI [25] was > 100 µM, the TGI [53] was > 100 µM and the TGI [26] was > 100 µM. The TGI [27] was > 100 µM, the TGI [28] was > 100 µM and the TGI [29] was > 100 µM. For the same molecule, the TGI [30] was > 100 µM, the TGI [31] was > 100 µM and the TGI [32] was > 100 µM. For the same molecule, the TGI [54] was > 100 µM, the TGI [33] was > 100 µM and the TGI [34] was > 100 µM. For the same molecule, the TGI [55] was > 100 µM, the TGI [35] was > 100 µM and the TGI [36] was > 100 µM. The TGI [56] was > 100 µM, the TGI [37] was > 100 µM and the TGI [38] was > 100 µM. For the same molecule, the TGI [59] was > 100 µM, the TGI [39] was > 100 µM and the TGI [40] was > 100 µM. For the same molecule, the TGI [41] was > 100 µM, the TGI [42] was > 100 µM and the TGI [43] was > 100 µM. The TGI [57] was > 100 µM, the TGI [44] was > 100 µM and the TGI [45] was > 100 µM. For the same molecule, the TGI [46] was > 100 µM, the TGI [58] was > 100 µM and the TGI [47] was > 100 µM. For the same molecule, the TGI [48] was > 100 µM.
